Measurements taken from ChEMBL document CHEMBL1131629, “4-Benzylamino-1-chloro-6-substituted phthalazines: synthesis and inhibitory activity toward phosphodiesterase 5” (J Med Chem, 1998).

organism: Sus scrofa; test: Vasorelaxation effect in porcine coronary arteries precontracted with PGF2-alpha; assay type: functional

| Compound | EC50 [nM] |
| --- | --- |
| COc1ccc(CNc2nnc(Cl)c3ccc(C#N)cc23)cc1Cl | 150 |
| O=C(O)C1CCN(c2nc(NCc3ccc4c(c3)OCO4)c3cc(Cl)ccc3n2)CC1 | 980 |
| COc1ccc(CNc2nnc(Cl)c3ccc([N+](=O)[O-])cc23)cc1Cl | 160 |
